Source: patent US20240041976A1, “COMPOSITION AND USE” (priority 2020, published 2024)

Key:
[1] = system: S.a. 3255 biofilm; experiment: Biofilm-oriented antimicrobial test (BOAT), MIC50 in biofilms; type: cell-based, Staphylococcus aureus
Method: (§1) Synergistic interactions between antimicrobials were determined using the fractional inhibition concentration (FIC). The FIC values were calculated as follows: the sum of the FIC =FICa+FICb+FICc, where the FICa means MIC of A in combination/MIC of A alone, FICb means MIC of B in combination/MIC of B, and FICc means MIC of C in combination/MIC of C alone. Effects were considered as synergistic if FIC was ≤0.5 for two components mixture and ≤0.75 for three components mixture.
(§2) Staphylococcus aureus strains were inoculated in 5 ml of TSB and incubated O/N at 37° C. Ten μl of the O/N cultures were then inoculated in 90 μl of TSB supplemented with 1% glucose and 1% NaCl (TSB-GN) in the appropriate wells of a 96-well microtiter plate (Sarstedt) to a final volume of 100 μl. The plates were then incubated at 37° C. for 24 h. After the incubation, the presence of the biofilm at the bottom of the wells was assessed visually.
(§3) The BOAT assay was performed as described previously (Gronseth et al., 2017, Int. J. Pediatr. Otorhinolaryngol., Vol. 103, p 58-64) with some modifications. The serial dilutions of the antimicrobials were prepared in challenge plates as follows: 175 μl of TSB were transferred in each row of a 96-well microtiter plate, except for the first row, according to the number of microbial strains to treat. In the first row of the plate, the antimicrobials were diluted to their respective working concentrations in a final volume of 350 μl of TSB. From the first row, 175 μl of the antimicrobial dilutions were then transferred to the second row of the plate and further serially diluted to the bottom of the plate. The same procedure was followed to prepare the controls, except that instead of the antimicrobials an equivalent volume of the respective vehicles were used. The biofilms were allowed to form for 24 h and then washed twice with 100 μl of sterile saline buffer and a total of 150 μl of the antimicrobial and control dilutions were transferred from the challenge plate to the corresponding wells of the biofilm plate. The challenged biofilms were then incubated for an additional 24 h at 37° C. After the challenge period, the antimicrobial dilutions were removed and the biofilms were carefully washed three times with 150 μl of sterile saline buffer. A total of 100 μl of TSB supplemented with 0.025% of triphenyl-tetrazolium chloride (TTC, Sigma) were then added to each well of the plate and further incubated at 37° C. for 5h. The results were then assessed by monitoring the development (or not) of red formazan (red colour), denoting the retention of metabolic activity by bacterial cells (Moussa et al., 2013, J. Mycol., Vol. 2013; Perez et al., 2010, Lett. Appl. Microbiol., Vol. 51, p 331-337). The medium was then removed and 200 μl of an ethanol:acetone (70:30) mixture was added to the wells and incubated O/N in order to extract the red formazan. The amount of extracted dye, reflecting the degree of bacterial cell metabolic activity, was then quantified by spectrophotometric readings at 492 nm.

[2] = system: S. aureus USA 300 biofilm; experiment: as above; type: cell-based, Staphylococcus aureus
Method: as §1, §2, §3

[3] = system: S. aureus ATTC 33591 biofilm; experiment: as above; type: cell-based, Staphylococcus aureus; settings: ATTC 33591, biofilm
Method: as §1, §2, §3

[4] = system: S. haemolyticus 4068; experiment: microbe, parasite or virus in culture; settings: for MIC of the component in combination: 4068
Method: (§4) Growth inhibition assays were performed in 96-well microtiter plates as described previously (Chi and Holo, 2018, supra). Briefly, 135 μl of TSB were dispensed in each well of a microtiter plate (according to the number of bacterial strains tested) except in the wells of the first row. The antimicrobials were diluted in TSB to working concentrations in a final volume of 285 μl and dispensed in the wells of the first row. The working concentrations were 100 μg/μl for garvicin KS, 10 μg/μl for micrococcin P1 and 1 mg/ml for penicillin G. From the first row, 150 μl of the antimicrobials were then serially diluted (two-fold dilutions) in a sequential fashion until the last row of the plate. Finally, 15 μl of a fresh O/N culture of each strain were added in the appropriate wells to reach a final volume of 150 μl in each well. The plates were then incubated at 37° C. for 24 h. The growth inhibition was expressed as minimum inhibitory concentration (MIC50), which refers to the minimum concentration of the antimicrobial needed to reduce at least 50% of the microbial growth compared to the untreated control. The MIC50 was assessed by optical density readings at 600 nm (O.D.600).
as §1
(§5) Bacteriocins and antimicrobial assays. […] These bacteriocins were all solubilized in 0.1% (vol/vol) trifluoracetic acid (TFA; Sigma-Aldrich). […] Cell growth inhibition assays and antimicrobial synergy determination was performed in line with Example 1.
(§6) To investigate whether there was synergy between the three bacteriocins (K1-EJ, GarKS and MP1), a checkboard antimicrobial assay was performed. The selected strains were treated for 5, 24 and 48 h with a range of concentrations of K1-EJ, GarKS and MP1 alone or in different combinations.

[5] = system: S. haemolyticus 4072; experiment: microbe, parasite or virus in culture; settings: for MIC of the component in combination: 4072
Method: as §4, §1, §5, §6

[6] = system: S. haemolyticus 4069; experiment: microbe, parasite or virus in culture; settings: for MIC of the component in combination: 4069
Method: as §4, §1, §5, §6

[7] = garvicin KS + micrococcin P1 + penicillin G

C/C=C(\NC(=O)c1csc(-c2csc(-c3ccc4c(n3)-c3csc(n3)[C@H]([C@@H](C)O)NC(=O)c3csc(n3)[C@H](C(C)C)NC(=O)c3csc(n3)/C(=C/C)NC(=O)[C@H]([C@@H](C)O)NC(=O)c3csc-4n3)n2)n1)C(=O)NC[C@@H](C)O [MP1, micrococcin P1]
MIC50 ([1]; Staphylococcus aureus, individual component, read-out: MIC50): > 100 µg/mL | MIC50 of the component in combination ([1]; garvicin KS + micrococcin P1): 2.5 × 10^−2. mg/ml | MIC50 of the component in combination [1, 7]: 0.0063 mg/mL | MIC50 ([2]; Staphylococcus aureus, USA300, individual component, read-out: MIC50): > 100 µg/mL | MIC50 of the component in combination ([2]; garvicin KS + micrococcin P1): 100 µg/mL | MIC50 of the component in combination [2, 7]: 100 µg/mL | MIC50 of the component in combination ([3]; garvicin KS + micrococcin P1): >100 µg/mL | MIC50 of the component in combination [3, 7]: 100 µg/mL | MIC50 ([3]; Staphylococcus aureus, ATTC33591BIOFILM, individual component, read-out: MIC50): > 100 µg/mL | MIC of the component in combination ([4]; 5 h, GarKS + MP1): 0.02 µg/mL | MIC of the component in combination ([4]; 5 h, K1-EJ + GarKS + MP1): 0.032 µg/mL | MIC of the component in combination ([4]; 5 h, K1-EJ + MP1): 0.02 µg/mL | MIC of the component in combination ([4]; 24 h, GarKS + MP1): 0.032 µg/mL | MIC of the component in combination ([4]; 24 h, K1-EJ + GarKS + MP1): 0.078 µg/mL | MIC of the component in combination ([4]; 24 h, K1-EJ + MP1): 0.078 µg/mL | MIC of the component in combination ([4]; 48 h, GarKS + MP1): 0.068 µg/mL | MIC of the component in combination ([4]; 48 h, K1-EJ + GarKS + MP1): 0.28 µg/mL | MIC of the component in combination ([4]; 48 h, K1-EJ + MP1): 0.072 µg/mL | MIC ([4]; Staphylococcus haemolyticus, 4068, 5 h): 0.02 µg/mL | MIC ([4]; Staphylococcus haemolyticus, 4068, 24 h): 0.023 µg/mL | MIC ([4]; Staphylococcus haemolyticus, 4068, 48 h): 0.078 µg/mL | MIC of the component in combination ([5]; 5 h, GarKS + MP1): 0.073 µg/mL | MIC of the component in combination ([5]; 5 h, K1-EJ + GarKS + MP1): 0.068 µg/mL | MIC of the component in combination ([5]; 5 h, K1-EJ + MP1): 0.036 µg/mL | MIC of the component in combination ([5]; 24 h, GarKS + MP1): 0.16 µg/mL | MIC of the component in combination ([5]; 24 h, K1-EJ + GarKS + MP1): 0.16 µg/mL | MIC of the component in combination ([5]; 24 h, K1-EJ + MP1): 0.15 µg/mL | MIC of the component in combination ([5]; 48 h, GarKS + MP1): 0.31 µg/mL | MIC of the component in combination ([5]; 48 h, K1-EJ + GarKS + MP1): 0.58 µg/mL | MIC of the component in combination ([5]; 48 h, K1-EJ + MP1): 0.16 µg/mL | MIC ([5]; Staphylococcus haemolyticus, 4072, 5 h): 0.039 µg/mL | MIC ([5]; Staphylococcus haemolyticus, 4072, 24 h): > 10 µg/mL | MIC ([5]; Staphylococcus haemolyticus, 4072, 48 h): 0.63 µg/mL | MIC of the component in combination ([6]; 5 h, GarKS + MP1): 0.16 µg/mL | MIC of the component in combination ([6]; 5 h, K1-EJ + GarKS + MP1): 0.068 µg/mL | MIC of the component in combination ([6]; 5 h, K1-EJ + MP1): 0.15 µg/mL | MIC of the component in combination ([6]; 24 h, GarKS + MP1): 2.5 µg/mL | MIC of the component in combination ([6]; 24 h, K1-EJ + GarKS + MP1): 0.33 µg/mL | MIC of the component in combination ([6]; 24 h, K1-EJ + MP1): 2.3 µg/mL | MIC of the component in combination ([6]; 48 h, GarKS + MP1): 5 µg/mL | MIC of the component in combination ([6]; 48 h, K1-EJ + GarKS + MP1): 0.58 µg/mL | MIC of the component in combination ([6]; 48 h, K1-EJ + MP1): 4.8 µg/mL | MIC ([6]; Staphylococcus haemolyticus, 4069, 5 h): 0.15 µg/mL | MIC ([6]; Staphylococcus haemolyticus, 4069, 24 h): > 10 µg/mL | MIC ([6]; Staphylococcus haemolyticus, 4069, 48 h): > 10 µg/mL
